Data from PubChem BioAssay (NCI).
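All cell lines were grown in 96-well plates and treated with compound for 48 hours. GI50 is the concentration that inhibits growth by half. TGI is the concentration that stops growth completely.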

Assays:
Assay in all cases: NCI-60 cell line screen, 48 h
LOX IMVI melanoma = tested on: LOX IMVI melanoma
HCC-2998 colon = tested on: HCC-2998 colon
SK-MEL-2 melanoma = tested on: SK-MEL-2 melanoma
NCI-H226 lung = tested on: NCI-H226 lung
MOLT-4 leukemia = tested on: MOLT-4 leukemia
HOP-62 NSCLC = tested on: HOP-62 NSCLC
DU-145 prostate = tested on: DU-145 prostate
SF-268 CNS = tested on: SF-268 CNS
SK-MEL-5 melanoma = tested on: SK-MEL-5 melanoma
SN12C renal = tested on: SN12C renal
UO-31 renal = tested on: UO-31 renal
SNB-19 CNS = tested on: SNB-19 CNS
SW-620 colon = tested on: SW-620 colon
ACHN renal = tested on: ACHN renal
U251 CNS = tested on: U251 CNS
CCRF-CEM leukemia = tested on: CCRF-CEM leukemia
UACC-62 melanoma = tested on: UACC-62 melanoma
NCI-H460 lung = tested on: NCI-H460 lung
A498 renal = tested on: A498 renal
786-0 renal = tested on: 786-0 renal
KM12 colon = tested on: KM12 colon
HL-60(TB) leukemia = tested on: HL-60(TB) leukemia
HCT-15 colon = tested on: HCT-15 colon
SK-OV-3 ovarian = tested on: SK-OV-3 ovarian
UACC-257 melanoma = tested on: UACC-257 melanoma
COLO 205 colon = tested on: COLO 205 colon
NCI/ADR-RES ovarian = tested on: NCI/ADR-RES ovarian
SF-539 CNS = tested on: SF-539 CNS
SK-MEL-28 melanoma = tested on: SK-MEL-28 melanoma
OVCAR-4 ovarian = tested on: OVCAR-4 ovarian
MALME-3M melanoma = tested on: MALME-3M melanoma
RPMI-8226 leukemia = tested on: RPMI-8226 leukemia
MDA-MB-435 = tested on: MDA-MB-435
T-47D breast = tested on: T-47D breast
SR leukemia = tested on: SR leukemia
OVCAR-3 ovarian = tested on: OVCAR-3 ovarian
NCI-H522 lung = tested on: NCI-H522 lung
MCF7 breast = tested on: MCF7 breast
OVCAR-5 ovarian = tested on: OVCAR-5 ovarian
OVCAR-8 ovarian = tested on: OVCAR-8 ovarian
HS 578T breast = tested on: HS 578T breast
PC-3 prostate = tested on: PC-3 prostate
HCT-116 colon = tested on: HCT-116 colon
CAKI-1 renal = tested on: CAKI-1 renal
A549 NSCLC = tested on: A549 NSCLC
MDA-MB-231 breast = tested on: MDA-MB-231 breast
TK-10 renal = tested on: TK-10 renal
HT29 colon = tested on: HT29 colon
BT-549 breast = tested on: BT-549 breast
SF-295 CNS = tested on: SF-295 CNS
HOP-92 NSCLC = tested on: HOP-92 NSCLC
RXF 393 renal = tested on: RXF 393 renal
SNB-75 CNS = tested on: SNB-75 CNS
IGROV1 ovarian = tested on: IGROV1 ovarian
K-562 leukemia = tested on: K-562 leukemia
M14 melanoma = tested on: M14 melanoma
EKVX NSCLC = tested on: EKVX NSCLC

`O=C(CSc1nc2sc3c(c2c(=O)n1-c1ccc(Cl)cc1)CCCC3)NNC(=O)Nc1ccc(Cl)c(C(F)(F)F)c1` was tested. Which GI50 (LOX IMVI melanoma) did it give?
Its GI50 is 1760 nM.

And the TGI (LOX IMVI melanoma)?
Its TGI is 3.49 µM.

What about the GI50 (HCC-2998 colon) of the same compound?
Its GI50 is 3.04 µM.

And the TGI (HCC-2998 colon)?
Its TGI is 9.42 µM.

What about the GI50 (SK-MEL-2 melanoma) of the same compound?
The GI50 was 2460 nM.

What about the TGI (SK-MEL-2 melanoma) of the same compound?
Its TGI is 7.24 µM.

What about the GI50 (NCI-H226 lung) of the same compound?
The GI50 was 2890 nM.

What about the TGI (NCI-H226 lung) of the same compound?
The TGI was 11.3 µM.

What about the GI50 (MOLT-4 leukemia) of the same compound?
Its GI50 is 2740 nM.

What about the TGI (MOLT-4 leukemia) of the same compound?
The TGI was 14.1 µM.

And the GI50 (HOP-62 NSCLC)?
The GI50 was 4.3 µM.

What about the TGI (HOP-62 NSCLC) of the same compound?
The TGI was 19.1 µM.

And the GI50 (DU-145 prostate)?
Its GI50 is 3.86 µM.

What about the TGI (DU-145 prostate) of the same compound?
The TGI was > 100 µM.

And the GI50 (SF-268 CNS)?
The GI50 was 6.21 µM.

And the TGI (SF-268 CNS)?
Its TGI is > 100 µM.

What about the GI50 (SK-MEL-5 melanoma) of the same compound?
Its GI50 is 4.06 µM.

And the TGI (SK-MEL-5 melanoma)?
Its TGI is 14.7 µM.

And the GI50 (SN12C renal)?
Its GI50 is 3.3 µM.

And the TGI (SN12C renal)?
Its TGI is 12.9 µM.

And the GI50 (UO-31 renal)?
Its GI50 is 2850 nM.

And the TGI (UO-31 renal)?
The TGI was 29.5 µM.

What about the GI50 (SNB-19 CNS) of the same compound?
The GI50 was 4.08 µM.

What about the TGI (SNB-19 CNS) of the same compound?
The TGI was > 100 µM.

And the GI50 (SW-620 colon)?
The GI50 was 3.16 µM.

And the TGI (SW-620 colon)?
Its TGI is 13.2 µM.

And the GI50 (ACHN renal)?
Its GI50 is 3.56 µM.

And the TGI (ACHN renal)?
The TGI was 16.9 µM.

And the GI50 (U251 CNS)?
The GI50 was 2930 nM.

And the TGI (U251 CNS)?
Its TGI is 10.9 µM.

What about the GI50 (CCRF-CEM leukemia) of the same compound?
Its GI50 is 3.65 µM.

And the TGI (CCRF-CEM leukemia)?
Its TGI is > 100 µM.

What about the GI50 (UACC-62 melanoma) of the same compound?
The GI50 was 2500 nM.

What about the TGI (UACC-62 melanoma) of the same compound?
The TGI was 10 µM.

What about the GI50 (NCI-H460 lung) of the same compound?
Its GI50 is 3.16 µM.

And the TGI (NCI-H460 lung)?
Its TGI is 10.9 µM.

What about the GI50 (A498 renal) of the same compound?
The GI50 was 2580 nM.

What about the TGI (A498 renal) of the same compound?
The TGI was 8.61 µM.

What about the GI50 (786-0 renal) of the same compound?
Its GI50 is 4.23 µM.

And the TGI (786-0 renal)?
The TGI was 16 µM.

What about the GI50 (KM12 colon) of the same compound?
Its GI50 is 3.75 µM.

What about the TGI (KM12 colon) of the same compound?
The TGI was > 100 µM.

What about the GI50 (HL-60(TB) leukemia) of the same compound?
Its GI50 is 3.18 µM.

What about the TGI (HL-60(TB) leukemia) of the same compound?
The TGI was 17.7 µM.

And the GI50 (HCT-15 colon)?
Its GI50 is 3.59 µM.

What about the TGI (HCT-15 colon) of the same compound?
The TGI was 18.6 µM.

And the GI50 (SK-OV-3 ovarian)?
Its GI50 is 4.66 µM.

And the TGI (SK-OV-3 ovarian)?
Its TGI is 20.4 µM.

What about the GI50 (UACC-257 melanoma) of the same compound?
The GI50 was 2940 nM.

What about the TGI (UACC-257 melanoma) of the same compound?
The TGI was 12.6 µM.

And the GI50 (COLO 205 colon)?
The GI50 was 2050 nM.

And the TGI (COLO 205 colon)?
Its TGI is 4.7 µM.

And the GI50 (NCI/ADR-RES ovarian)?
The GI50 was 6.57 µM.

And the TGI (NCI/ADR-RES ovarian)?
Its TGI is 97.3 µM.

What about the GI50 (SF-539 CNS) of the same compound?
The GI50 was 6.53 µM.

What about the TGI (SF-539 CNS) of the same compound?
The TGI was 21.2 µM.

And the GI50 (SK-MEL-28 melanoma)?
The GI50 was 4.48 µM.

What about the TGI (SK-MEL-28 melanoma) of the same compound?
The TGI was 17.3 µM.

And the GI50 (OVCAR-4 ovarian)?
Its GI50 is 1920 nM.

What about the TGI (OVCAR-4 ovarian) of the same compound?
The TGI was 4.31 µM.

And the GI50 (MALME-3M melanoma)?
Its GI50 is 2450 nM.

And the TGI (MALME-3M melanoma)?
Its TGI is 6.82 µM.

What about the GI50 (RPMI-8226 leukemia) of the same compound?
The GI50 was 2990 nM.

What about the TGI (RPMI-8226 leukemia) of the same compound?
Its TGI is 17.9 µM.

And the GI50 (MDA-MB-435)?
The GI50 was 3.67 µM.

What about the TGI (MDA-MB-435) of the same compound?
The TGI was 14.6 µM.

And the GI50 (T-47D breast)?
The GI50 was 1830 nM.

What about the TGI (T-47D breast) of the same compound?
Its TGI is 4.2 µM.

What about the GI50 (SR leukemia) of the same compound?
Its GI50 is 3.3 µM.

And the TGI (SR leukemia)?
Its TGI is 46.1 µM.

And the GI50 (OVCAR-3 ovarian)?
The GI50 was 2950 nM.

And the TGI (OVCAR-3 ovarian)?
The TGI was 10.6 µM.

What about the GI50 (NCI-H522 lung) of the same compound?
Its GI50 is 1960 nM.

What about the TGI (NCI-H522 lung) of the same compound?
Its TGI is 6.05 µM.

And the GI50 (MCF7 breast)?
The GI50 was 2770 nM.

What about the TGI (MCF7 breast) of the same compound?
Its TGI is 17.6 µM.

And the GI50 (OVCAR-5 ovarian)?
The GI50 was 4.4 µM.

What about the TGI (OVCAR-5 ovarian) of the same compound?
Its TGI is 19.7 µM.

What about the GI50 (OVCAR-8 ovarian) of the same compound?
Its GI50 is 3.12 µM.

And the TGI (OVCAR-8 ovarian)?
Its TGI is 11.9 µM.

What about the GI50 (HS 578T breast) of the same compound?
Its GI50 is 6.93 µM.

And the TGI (HS 578T breast)?
Its TGI is 73.1 µM.

And the GI50 (PC-3 prostate)?
The GI50 was 2050 nM.

What about the TGI (PC-3 prostate) of the same compound?
The TGI was 6.62 µM.

What about the GI50 (HCT-116 colon) of the same compound?
Its GI50 is 1870 nM.

And the TGI (HCT-116 colon)?
The TGI was 3.99 µM.

What about the GI50 (CAKI-1 renal) of the same compound?
The GI50 was 1990 nM.

And the TGI (CAKI-1 renal)?
The TGI was 6.17 µM.

What about the GI50 (A549 NSCLC) of the same compound?
Its GI50 is 3.3 µM.

And the TGI (A549 NSCLC)?
Its TGI is 15.7 µM.

And the GI50 (MDA-MB-231 breast)?
The GI50 was 4.45 µM.

And the TGI (MDA-MB-231 breast)?
The TGI was 20.5 µM.

What about the GI50 (TK-10 renal) of the same compound?
Its GI50 is 4.3 µM.

What about the TGI (TK-10 renal) of the same compound?
The TGI was 23.6 µM.

And the GI50 (HT29 colon)?
Its GI50 is 3.05 µM.

What about the TGI (HT29 colon) of the same compound?
The TGI was 9.54 µM.

What about the GI50 (BT-549 breast) of the same compound?
The GI50 was 3.5 µM.

What about the TGI (BT-549 breast) of the same compound?
Its TGI is 14.4 µM.

What about the GI50 (SF-295 CNS) of the same compound?
Its GI50 is 3.11 µM.

What about the TGI (SF-295 CNS) of the same compound?
Its TGI is 8.87 µM.

And the GI50 (HOP-92 NSCLC)?
The GI50 was 1440 nM.

What about the TGI (HOP-92 NSCLC) of the same compound?
The TGI was 3.97 µM.

What about the GI50 (RXF 393 renal) of the same compound?
Its GI50 is 2580 nM.

And the TGI (RXF 393 renal)?
The TGI was 9.32 µM.

What about the GI50 (SNB-75 CNS) of the same compound?
The GI50 was 2010 nM.

What about the TGI (SNB-75 CNS) of the same compound?
Its TGI is 7.88 µM.

What about the GI50 (IGROV1 ovarian) of the same compound?
Its GI50 is 4.71 µM.

And the TGI (IGROV1 ovarian)?
The TGI was 91.7 µM.

What about the GI50 (K-562 leukemia) of the same compound?
The GI50 was 2510 nM.

What about the TGI (K-562 leukemia) of the same compound?
The TGI was > 100 µM.

And the GI50 (M14 melanoma)?
Its GI50 is 3.42 µM.

What about the TGI (M14 melanoma) of the same compound?
Its TGI is 14.1 µM.

And the GI50 (EKVX NSCLC)?
Its GI50 is 2680 nM.

What about the TGI (EKVX NSCLC) of the same compound?
Its TGI is 8.85 µM.
